Experimental data as given in patent US9624269B2, “Peptide inhibitors of BACE1” (GENENTECH, INC., priority 2011, dated 2017).

Key:
Assay in all cases: Biotinylated BACE020 peptide binding ELISA
[1] = molecular target: T1, human BACE1 ECD mutant S96A (35) (Homo sapiens, UniProt P56817, S96A)
T1 construct: extracellular domain (ECD) (residues 22-457) and a C-terminal His8 tag; made in house; host or cells: Chinese hamster ovary cells (transient)
Source text: (§1) Human BACE1 mutants were made in a pRK vector containing the BACE 1 signal peptide followed by its extracellular domain (ECD) (residues 22-457) and a C-terminal His8 tag (SEQ ID NO: 54). Mutations were made using the appropriate oligonucleotide using a QuikChange® II XL Site-Directed Mutagenesis kit (Agilent Technologies Stratagene Products, La Jolla, Calif.) and confirmed by DNA sequencing. Proteins were expressed transiently using Chinese hamster ovary cells growing in 1-liter fermenters and cultures were harvested after 2 weeks. Following centrifugation, mutant proteins from the medium were purified to homogeneity (>95% purity) by chromatography on Ni-NTA agarose (Qiagen, Valencia, Calif.). After washing with PBS containing 10 mM imidazole, proteins were eluted with PBS containing 200 mM imidazole and the eluate was pooled, concentrated using a Vivaspin 20 (Sartorius-stedim, Goettingen, Germany) and applied to a Superdex 200 10/300 GL column (GE Healthcare Bio-Sciences AB, Uppsala, Sweden) equilibrated in 20 mM HEPES pH 7.2, 150 mM NaCl. Protein peaks were collected, concentrated and protein concentration determined by A280.
(§2) Binding of biotinylated BACE020 to recombinant protein was determined by a 96-well plate assay. Maxisorp microtiter plates (Nalge Nunc International, Rochester, N.Y.) were coated overnight at 4° C. with 2 μg/ml BACE 1 mutant in 50 mM carbonate, pH 9.6. The coated wells were washed with buffer (PBS, 0.05% Polysorbate 20) and blocked with assay buffer (PBS, pH 7.4, 0.5% BSA, 0.05% Tween 20, 15 ppm Proclin) for 1 h at room temperature with gentle shaking. After blocking, various concentrations of C-terminal biotin tagged BACE020 peptide with a polyethylene glycol (PEG) spacer (Ac-[…]-(PEG)3-biotin (SEQ ID NO: 16); Ac-[…]-CONH—CH2—(CH2—CH2—O—)3—(CH2)3—NH-biotin (SEQ ID NO: 16)) diluted in assay buffer were added and plates were incubated for 1 h with gentle shaking at room temperature. After washing, the amount of peptide bound to the plate was detected by the addition of Streptavidin-Horseradish Peroxidase Conjugate (GE Healthcare, Piscataway, N.J.) followed by the addition of TMB/H2O2 substrate (KPL, Gaithersburg, Md.). The reaction was quenched with 1 M phosphoric acid and the A450 measured on a Molecular Devices SpectraMax Plus384 microplate reader. Concentrations to give half maximal effective concentration (EC50) were determined using a 4-parameter non-linear regression curve-fitting program with Kaleidagraph (Synergy Software, Reading, Pa.). […] Concentrations to give half maximal inhibition concentration (IC50) were determined using a 4-parameter non-linear regression curve-fitting program with Kaleidagraph.
(§3) The ability of biotinylated BACE020 to bind to BACE1 and mutants was determined using an ELISA assay. The fold decrease in binding affinity was determined as the relative EC50 values of EC50 (mut)/EC50 (WT), which are listed in Table 3.

[2] = molecular target: T2, human BACE1 ECD mutant F169A (108) (Homo sapiens, UniProt P56817, F169A)
T2 construct: extracellular domain (ECD) (residues 22-457) and a C-terminal His8 tag; made in house; host or cells: Chinese hamster ovary cells (transient)
Source text: as §1, §2, §3

[3] = molecular target: T3, human BACE1 ECD mutant K285A (224) (Homo sapiens, UniProt P56817, K285A)
T3 construct: extracellular domain (ECD) (residues 22-457) and a C-terminal His8 tag; made in house; host or cells: Chinese hamster ovary cells (transient)
Source text: as §1, §2, §3

[4] = molecular target: T4, human BACE1 ECD mutant T293A (232) (Homo sapiens, UniProt P56817, T293A)
T4 construct: its extracellular domain (ECD) (residues 22-457) and a C-terminal His8 tag; His8 (C); made in house; host or cells: Chinese hamster ovary cells (transient, secreted)
Source text: as §1, §2, §3

[5] = molecular target: T5, human BACE1 ECD mutant R189A (128) (Homo sapiens, UniProt P56817, R189A)
T5 construct: extracellular domain (ECD) (residues 22-457) and a C-terminal His8 tag; made in house; host or cells: Chinese hamster ovary cells (transient)
Source text: as §1, §2, §3

[6] = molecular target: T6, human BACE1 ECD mutant K382A (321) (Homo sapiens, UniProt P56817, K382A)
T6 construct: its extracellular domain (ECD) (residues 22-457) and a C-terminal His8 tag; His8 (C); made in house; host or cells: Chinese hamster ovary cells (transient, secreted)
Source text: as §1, §2, §3

[7] = molecular target: T7, human BACE1 ECD mutant Q73A (12) (Homo sapiens, UniProt P56817, Q73A)
T7 construct: extracellular domain (ECD) (residues 22-457) and a C-terminal His8 tag; made in house; host or cells: Chinese hamster ovary cells (transient)
Source text: as §1, §2, §3

[8] = molecular target: T8, human BACE1 ECD mutant 1I79A (118) (Homo sapiens, UniProt P56817, I179A)
T8 construct: extracellular domain (ECD) (residues 22-457) and a C-terminal His8 tag; made in house; host or cells: Chinese hamster ovary cells (transient)
Source text: as §1, §2, §3

[9] = molecular target: T9, human BACE1 ECD mutant T292A (231) (Homo sapiens, UniProt P56817, T292A)
T9 construct: its extracellular domain (ECD) (residues 22-457) and a C-terminal His8 tag; His8 (C); made in house; host or cells: Chinese hamster ovary cells (transient, secreted)
Source text: as §1, §2, §3

[10] = molecular target: T10, human BACE1 ECD mutant T133A (72) (Homo sapiens, UniProt P56817, T133A)
T10 construct: extracellular domain (ECD) (residues 22-457) and a C-terminal His8 tag; made in house; host or cells: Chinese hamster ovary cells (transient)
Source text: as §1, §2, §3

[11] = molecular target: T11, human BACE1 ECD mutant T390A (329) (Homo sapiens, UniProt P56817, T390A)
T11 construct: its extracellular domain (ECD) (residues 22-457) and a C-terminal His8 tag; His8 (C); made in house; host or cells: Chinese hamster ovary cells (transient, secreted)
Source text: as §1, §2, §3

[12] = molecular target: T12, human BACE1 ECD mutant Y132A (71) (Homo sapiens, UniProt P56817, Y132A)
T12 construct: extracellular domain (ECD) (residues 22-457) and a C-terminal His8 tag; made in house; host or cells: Chinese hamster ovary cells (transient)
Source text: as §1, §2, §3

[13] = molecular target: T13, human BACE1 ECD mutant N294A (233) (Homo sapiens, UniProt P56817, N294A)
T13 construct: its extracellular domain (ECD) (residues 22-457) and a C-terminal His8 tag; His8 (C); made in house; host or cells: Chinese hamster ovary cells (transient, secreted)
Source text: as §1, §2, §3

[14] = molecular target: T14, human BACE1 ECD mutant G291A (230) (Homo sapiens, UniProt P56817, G291A)
T14 construct: its extracellular domain (ECD) (residues 22-457) and a C-terminal His8 tag; His8 (C); made in house; host or cells: Chinese hamster ovary cells (transient, secreted)
Source text: as §1, §2, §3

[15] = molecular target: T15, human BACE1 ECD mutant Q134A (73) (Homo sapiens, UniProt P56817, Q134A)
T15 construct: extracellular domain (ECD) (residues 22-457) and a C-terminal His8 tag; made in house; host or cells: Chinese hamster ovary cells (transient)
Source text: as §1, §2, §3

[16] = molecular target: T16, human BACE1 ECD mutant W176A (115) (Homo sapiens, UniProt P56817, W176A)
T16 construct: extracellular domain (ECD) (residues 22-457) and a C-terminal His8 tag; made in house; host or cells: Chinese hamster ovary cells (transient)
Source text: as §1, §2, §3

[17] = molecular target: T17, human BACE1 ECD mutant D289A (228) (Homo sapiens, UniProt P56817, D289A)
T17 construct: extracellular domain (ECD) (residues 22-457) and a C-terminal His8 tag; made in house; host or cells: Chinese hamster ovary cells (transient)
Source text: as §1, §2, §3

[18] = molecular target: T18, human BACE1 ECD mutant D93A (32) (Homo sapiens, UniProt P56817, D93A)
T18 construct: extracellular domain (ECD) (residues 22-457) and a C-terminal His8 tag; made in house; host or cells: Chinese hamster ovary cells (transient)
Source text: as §1, §2, §3

[19] = molecular target: T19, human BACE1 ECD mutant R296A (235) (Homo sapiens, UniProt P56817, R296A)
T19 construct: its extracellular domain (ECD) (residues 22-457) and a C-terminal His8 tag; His8 (C); made in house; host or cells: Chinese hamster ovary cells (transient, secreted)
Source text: as §1, §2, §3

[20] = molecular target: T20, human BACE1 ECD mutant G74A (13) (Homo sapiens, UniProt P56817, G74A)
T20 construct: extracellular domain (ECD) (residues 22-457) and a C-terminal His8 tag; made in house; host or cells: Chinese hamster ovary cells (transient)
Source text: as §1, §2, §3

[21] = molecular target: T21, human BACE1 ECD mutant I171A (110) (Homo sapiens, UniProt P56817, I171A)
T21 construct: extracellular domain (ECD) (residues 22-457) and a C-terminal His8 tag; made in house; host or cells: Chinese hamster ovary cells (transient)
Source text: as §1, §2, §3

human BACE1 ECD WT = molecular target: T22, human BACE1 ECD WT (Homo sapiens, UniProt P56817)
T22 construct: extracellular domain (ECD) (residues 22-457) and a C-terminal His8 tag; made in house; host or cells: Chinese hamster ovary cells (transient)
Source text: as §1, §2, §3

[22] = molecular target: T23, human BACE1 ECD mutant L91A (30) (Homo sapiens, UniProt P56817, L91A)
T23 construct: extracellular domain (ECD) (residues 22-457) and a C-terminal His8 tag; made in house; host or cells: Chinese hamster ovary cells (transient)
Source text: as §1, §2, §3

[23] = molecular target: T24, human BACE1 ECD mutant K168A (107) (Homo sapiens, UniProt P56817, K168A)
T24 construct: extracellular domain (ECD) (residues 22-457) and a C-terminal His8 tag; made in house; host or cells: Chinese hamster ovary cells (transient)
Source text: as §1, §2, §3

[24] = molecular target: T25, human BACE1 ECD mutant G72A (11) (Homo sapiens, UniProt P56817, G72A)
T25 construct: extracellular domain (ECD) (residues 22-457) and a C-terminal His8 tag; made in house; host or cells: Chinese hamster ovary cells (transient)
Source text: as §1, §2, §3

T2 sequence (P56817 22-457 F169A): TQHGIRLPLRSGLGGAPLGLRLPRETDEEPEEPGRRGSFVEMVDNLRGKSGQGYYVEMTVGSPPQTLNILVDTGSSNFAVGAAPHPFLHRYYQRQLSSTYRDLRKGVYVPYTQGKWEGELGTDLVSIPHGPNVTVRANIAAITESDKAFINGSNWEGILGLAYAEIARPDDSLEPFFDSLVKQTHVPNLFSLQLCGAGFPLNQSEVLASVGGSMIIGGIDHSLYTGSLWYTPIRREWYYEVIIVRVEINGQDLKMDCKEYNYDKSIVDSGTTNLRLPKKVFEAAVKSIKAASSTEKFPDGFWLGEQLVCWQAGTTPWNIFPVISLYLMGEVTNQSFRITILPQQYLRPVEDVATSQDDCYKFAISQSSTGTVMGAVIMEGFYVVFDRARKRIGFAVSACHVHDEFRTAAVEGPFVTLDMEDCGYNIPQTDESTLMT
T6 sequence (P56817 22-457 K382A): as the sequence (P56817 22-457 F169A) above, with A148F, K361A counted along it
T14 sequence (P56817 22-457 G291A): as the sequence (P56817 22-457 F169A) above, with A148F, G270A counted along it
T20 sequence (P56817 22-457 G74A): as the sequence (P56817 22-457 F169A) above, with G53A, A148F counted along it
T23 sequence (P56817 22-457 L91A): as the sequence (P56817 22-457 F169A) above, with L70A, A148F counted along it
T5 sequence (P56817 22-457 R189A): as the sequence (P56817 22-457 F169A) above, with A148F, R168A counted along it
T15 sequence (P56817 22-457 Q134A): as the sequence (P56817 22-457 F169A) above, with Q113A, A148F counted along it
T18 sequence (P56817 22-457 D93A): as the sequence (P56817 22-457 F169A) above, with D72A, A148F counted along it
T19 sequence (P56817 22-457 R296A): as the sequence (P56817 22-457 F169A) above, with A148F, R275A counted along it
T10 sequence (P56817 22-457 T133A): as the sequence (P56817 22-457 F169A) above, with T112A, A148F counted along it
T11 sequence (P56817 22-457 T390A): as the sequence (P56817 22-457 F169A) above, with A148F, T369A counted along it
T17 sequence (P56817 22-457 D289A): as the sequence (P56817 22-457 F169A) above, with A148F, D268A counted along it
T8 sequence (P56817 22-457 I179A): as the sequence (P56817 22-457 F169A) above, with A148F, I158A counted along it
T7 sequence (P56817 22-457 Q73A): as the sequence (P56817 22-457 F169A) above, with Q52A, A148F counted along it
T24 sequence (P56817 22-457 K168A): as the sequence (P56817 22-457 F169A) above, with K147A, A148F counted along it
T9 sequence (P56817 22-457 T292A): as the sequence (P56817 22-457 F169A) above, with A148F, T271A counted along it
T4 sequence (P56817 22-457 T293A): as the sequence (P56817 22-457 F169A) above, with A148F, T272A counted along it
T22 sequence (P56817 22-457): as the sequence (P56817 22-457 F169A) above, with A148F counted along it
T3 sequence (P56817 22-457 K285A): as the sequence (P56817 22-457 F169A) above, with A148F, K264A counted along it
T12 sequence (P56817 22-457 Y132A): as the sequence (P56817 22-457 F169A) above, with Y111A, A148F counted along it
T21 sequence (P56817 22-457 I171A): as the sequence (P56817 22-457 F169A) above, with A148F, I150A counted along it
T16 sequence (P56817 22-457 W176A): as the sequence (P56817 22-457 F169A) above, with A148F, W155A counted along it
T25 sequence (P56817 22-457 G72A): as the sequence (P56817 22-457 F169A) above, with G51A, A148F counted along it
T1 sequence (P56817 22-457 S96A): as the sequence (P56817 22-457 F169A) above, with S75A, A148F counted along it
T13 sequence (P56817 22-457 N294A): as the sequence (P56817 22-457 F169A) above, with A148F, N273A counted along it

Substance: Ac-NEESMYCRLLGIGCG-(PEG)3-biotin [Biotinylated BACE020]
- Fold Decrease in Binding EC50 (Mut)/EC50 (WT) [1]: 1.0
- Fold Decrease in Binding EC50 (Mut)/EC50 (WT) [2]: 1.9
- Fold Decrease in Binding EC50 (Mut)/EC50 (WT) [3]: 4.0
- Fold Decrease in Binding EC50 (Mut)/EC50 (WT) [4]: 349.0
- Fold Decrease in Binding EC50 (Mut)/EC50 (WT) [5]: 2.7
- Fold Decrease in Binding EC50 (Mut)/EC50 (WT) [6]: 4.5
- Fold Decrease in Binding EC50 (Mut)/EC50 (WT) [7]: 1.7
- Fold Decrease in Binding EC50 (Mut)/EC50 (WT) [8]: 2.6
- Fold Decrease in Binding EC50 (Mut)/EC50 (WT) [9]: 73.6
- Fold Decrease in Binding EC50 (Mut)/EC50 (WT) [10]: 1.1
- Fold Decrease in Binding EC50 (Mut)/EC50 (WT) [11]: 0.9
- Fold Decrease in Binding EC50 (Mut)/EC50 (WT) [12]: 72.2
- Fold Decrease in Binding EC50 (Mut)/EC50 (WT) [13]: 2.4
- Fold Decrease in Binding EC50 (Mut)/EC50 (WT) [14]: 0.8
- Fold Decrease in Binding EC50 (Mut)/EC50 (WT) [15]: 1990.0
- Fold Decrease in Binding EC50 (Mut)/EC50 (WT) [16]: 690.0
- Fold Decrease in Binding EC50 (Mut)/EC50 (WT) [17]: 2210.0
- Fold Decrease in Binding EC50 (Mut)/EC50 (WT) [18]: 568.0
- Fold Decrease in Binding EC50 (Mut)/EC50 (WT) [19]: 70.9
- Fold Decrease in Binding EC50 (Mut)/EC50 (WT) [20]: 488.0
- Fold Decrease in Binding EC50 (Mut)/EC50 (WT) [21]: 1020.0
- Fold Decrease in Binding EC50 (Mut)/EC50 (WT) (human BACE1 ECD WT): 1.0
- Fold Decrease in Binding EC50 (Mut)/EC50 (WT) [22]: 1.0
- Fold Decrease in Binding EC50 (Mut)/EC50 (WT) [23]: 1.0
- Fold Decrease in Binding EC50 (Mut)/EC50 (WT) [24]: 6.5
